In patent publication US20100099770A1, “METHOD FOR TREATING DIABETIC PERIPHERAL NEUROPATHIC PAIN” (SCHWARZ PHARMA AG, priority 2001, published 2010):
Several values for one entry are separate records, joined by “and”; a condition that tells them apart may be missing. Equal values may be shown once. Marks after values point to notes of the source that are not given here.

Tests used:
[1] = tested on: neuropathic pain (CHUNG), thermal stimulation; assay: Neuropathic pain (CHUNG) test, thermal stimulation on lesioned paw; format: in vivo, rat
Description: (§1) The following Tables 8 and 9 show the effects of harkoseride (hereinafter referred tows SPM 927), carbamazepine, levetiracetam, gabapentin and morphine in the neuropathic pain (CHUNG) test in the rat. Eight (8) rats per group were used.

[2] = tested on: neuropathic pain (CHUNG), tactile stimulation; assay: Neuropathic pain (CHUNG) test, tactile stimulation on lesioned paw; format: in vivo, rat; settings: for FORCE INDUCING PAW-WITHDRAWAL, % change: compared with lesioned control; for FORCE INDUCING PAW-WITHDRAWAL, mean ± s.e.m.: lesioned paw
Description: as §1

[3] = tested on: Carrageenan-induced mechanical hyperalgesia; assay: Carrageenan-induced mechanical hyperalgesia, paw pressure (Randall-Sellito) test; format: in vivo, rats; settings: for nociceptive threshold: inflamed paw, 3 h after carrageenan
Protocol: Carrageenan-induced mechanical hyperalgesia in rats was induced by subplantar injection of a 0.1 ml of a 2% carrageenan suspension and measured 3 h afterwards by the paw pressure (Randall-Sellito) test.
(§2) Drugs and experimental design: SPM 927 and GBP were suspended in 1% methylcellulose and administered i.p. at doses of 10 mg/kg, 20 mg/kg and 40 mg/kg. Pre-treatment time was 30 min before pain measurement. One group of animals served as controls and consequently received an injection of solvent (10 ml/kg) and another group of animals received a reference compound (Carrageenan test: 10 mg/kg indomethacin; Formalin test: 10 mg/kg morphine). Each compound was tested in a separate experiment and each experiment included a control and a reference group. 10 rats per group were used in the Carrageenan test and 6 mice per group in the formalin test.

[4] = tested on: formalin-induced nociception (paw licking); assay: Subchronic inflammatory nociception in mice (formalin test); format: in vivo; settings: for nociceptive threshold, early phase: 0-5 min after formalin (acute pain); for nociceptive threshold, late phase: 20-30 min after formalin (subchronic inflammatory pain)
Protocol: Subchronic inflammatory nocicpetion in mice was induced by the subplantar injection of formalin (0.02 ml of a 5% solution). Nociceptive behaviour (paw licking) was measured and quantified between 0 and 5 min (acute pain) and between 20 and 30 min (subchronic inflammatory pain) after formalin.
as §2

[5] = 16 mg/kg i.p. -30 min, compared with lesioned control
[6] = 16 mg/kg i.p. -30 min, lesioned paw
[7] = 32 mg/kg i.p. -30 min, compared with lesioned control
[8] = 32 mg/kg i.p. -30 min, lesioned paw
[9] = 64 mg/kg i.p. -30 min, compared with lesioned control
[10] = 64 mg/kg i.p. -30 min, lesioned paw
[11] = 10 mg/kg i.p. 30 min before measurement

| Compound | PAW-WITHDRAWAL LATENCY, % change [1, 5] | PAW-WITHDRAWAL LATENCY, mean ± s.e.m. [1, 6] | PAW-WITHDRAWAL LATENCY, % change [1, 7] | PAW-WITHDRAWAL LATENCY, mean ± s.e.m. [1, 8] | PAW-WITHDRAWAL LATENCY, % change [1, 9] | PAW-WITHDRAWAL LATENCY, mean ± s.e.m. [1, 10] | FORCE INDUCING PAW-WITHDRAWAL, % change ([2]; 16 mg/kg i.p. -30 min) | FORCE INDUCING PAW-WITHDRAWAL, mean ± s.e.m. ([2]; 16 mg/kg i.p. -30 min) | FORCE INDUCING PAW-WITHDRAWAL, % change ([2]; 32 mg/kg i.p. -30 min) | FORCE INDUCING PAW-WITHDRAWAL, mean ± s.e.m. ([2]; 32 mg/kg i.p. -30 min) | FORCE INDUCING PAW-WITHDRAWAL, % change ([2]; 64 mg/kg i.p. -30 min) | FORCE INDUCING PAW-WITHDRAWAL, mean ± s.e.m. ([2]; 64 mg/kg i.p. -30 min) | nociceptive threshold [3, 11] | nociceptive threshold, early phase ([4]; 10 mg/kg i.p.) | further results |
| --- | --- | --- | --- | --- | --- | --- | --- | --- | --- | --- | --- | --- | --- | --- | --- |
| NC(=O)N1c2ccccc2C=Cc2ccccc21 [Carbamazepine, carbamazepine] | +118% (b) | 35.6 ± 4.1 (b) sec | +39% (b) | 22.7 ± 4.3 NS (b) sec | +77% (b) | 28.8 ± 6.9 NS (b) sec | +21% (b) | 21.0 ± 2.3 NS (b) g | +121% (b) | 38.4 ± 8.1 (b) g | +125% (b) | 39.2 ± 9.1 (b) g | – | – | – |
| NCC1(CC(=O)O)CCCCC1 [GBP, gabapentin] | – | – | +18% (b) | 19.3 ± 3.6 NS (b) sec | +75% (b) | 28.5 ± 5.4 NS (b) sec | – | – | −1% (b) | 17.2 ± 3.0 NS (b) g | +35% (b) | 23.5 ± 4.2 NS (b) g | 254 ± 39 | 98 ± 20 s | PAW-WITHDRAWAL LATENCY, % change ([1]; 128 mg/kg i.p. -30 min, compared with lesioned control): +66% (b); PAW-WITHDRAWAL LATENCY, mean ± s.e.m. ([1]; 128 mg/kg i.p. -30 min, lesioned paw): 27.1 ± 5.2 NS (b) sec; nociceptive threshold ([3]; 20 mg/kg i.p. 30 min before measurement): 296 ± 31; nociceptive threshold ([3]; 40 mg/kg i.p. 30 min before measurement): 282 ± 33; effect on Carrageenan-induced mechanical hyperalgesia (in words) ([3]; 10, 20, 40 mg/kg i.p.): no significant effect; nociceptive threshold, late phase ([4]; 10 mg/kg i.p.): 133 ± 30 s; nociceptive threshold, early phase ([4]; 20 mg/kg i.p.): 102 ± 17 s; nociceptive threshold, late phase ([4]; 20 mg/kg i.p.): 118 ± 13 s; nociceptive threshold, early phase ([4]; 40 mg/kg i.p.): 72 ± 10 s; nociceptive threshold, late phase ([4]; 40 mg/kg i.p.): 73 ± 13 s; effect on formalin-induced nociceptive response (in words) ([4]; 10, 20, 40 mg/kg i.p.): slightly but not significantly inhibited; FORCE INDUCING PAW-WITHDRAWAL, % change ([2]; 128 mg/kg i.p. -30 min): +93% (b); FORCE INDUCING PAW-WITHDRAWAL, mean ± s.e.m. ([2]; 128 mg/kg i.p. -30 min): 33.6 ± 6.7 (b) g |
| COc1ccc2c(c1)c(CC(=O)O)c(C)n2C(=O)c1ccc(Cl)cc1 [Indomethacin, indomethacin] | – | – | – | – | – | – | – | – | – | – | – | – | 370 ± 15^b and 384 ± 11^b | – | – |
| CC[C@@H](C(N)=O)N1CCCC1=O [Levetiracetam, levetiracetam] | +17% (b) | 19.0 ± 3.6 NS (b) sec | +5% (b) | 17.1 ± 2.9 NS (b) sec | +63% (b) | 26.6 ± 6.0 NS (b) sec | +32% (b) | 23.0 ± 4.0 NS (b) g | +44% (b) | 25.0 ± 5.2 NS (b) g | +14% (b) | 19.8 ± 4.1 NS (b) g | – | – | – |
| CN1CC[C@]23c4c5ccc(O)c4O[C@H]2[C@@H](O)C=C[C@H]3[C@H]1C5 [Morphine, morphine] | – | – | – | – | – | – | +164% (b) | 45.9 ± 8.8 (b) g | – | – | – | – | – | 8 ± 6^a s and 6 ± 3^a s | PAW-[…], % change [1, 5]: +160% (b); PAW-[…], mean ± s.e.m. [1, 6]: 42.4 ± 1.9 (b) sec |
